From ChEMBL document CHEMBL3244417, “Potential antitumor agents. 32. Role of agent base strength in the quantitative structure--antitumor relationships for 4'-(9-acridinylamino)methanesulfonanilide analogues” (J Med Chem, 1979)

Assay: physchem
Description: Dissociation constant, pKa of the compound by UV spectrophotometric analysis

SMILES	pKa
CCS(=O)(=O)Nc1ccc(Nc2c3ccccc3nc3ncccc23)c(OC)c1	6.07
NC(=O)CCCc1ccc(Nc2c3ccccc3nc3ccccc23)cc1	7.67
COc1cc(NS(C)(=O)=O)ccc1Nc1c2ccccc2nc2cc(OCC(O)CO)ccc12 (stereo unspecified)	7
CCCCCCS(=O)(=O)Nc1ccc(Nc2c3ccccc3nc3cc(NC(C)=O)ccc23)cc1	7.34
CNC(=O)c1cccc2c(Nc3ccc(NS(C)(=O)=O)cc3OC)c3ccccc3nc12	6.36
COc1cc(NS(C)(=O)=O)ccc1Nc1c2ccccc2nc2cc(NC(C)=O)ccc12	7.56
CCCS(=O)(=O)Nc1ccc(Nc2c3ccccc3nc3cc(NC(C)=O)ccc23)cc1	7.33
NC(=O)CCCCCCCCc1ccc(Nc2c3ccccc3nc3ccccc23)cc1	7.7
NC(=O)CCCCc1ccc(Nc2c3ccccc3nc3ccccc23)cc1	7.7
CCCS(=O)(=O)Nc1ccc(Nc2c3ccccc3nc3c(C(N)=O)cccc23)c(OC)c1	6.35
NC(=O)CCCCCCCc1ccc(Nc2c3ccccc3nc3ccccc23)cc1	7.7
CCCS(=O)(=O)Nc1ccc(Nc2c3ccccc3nc3ccccc23)cc1	7.2
COc1cc(NS(C)(=O)=O)ccc1Nc1c2ccccc2nc2c(C(=O)NCC(O)CO)cccc12 (stereo unspecified)	6.34
CCCCNC(=O)c1cccc2c(Nc3ccc(NS(C)(=O)=O)cc3OC)c3ccccc3nc12	6.36
CCS(=O)(=O)Nc1ccc(Nc2c3ccccc3nc3cc([N+](=O)[O-])ccc23)c(OC)c1	5.7
COc1cc(NS(C)(=O)=O)ccc1Nc1c2ccccc2nc2c(C(=O)NCC(N)=O)cccc12	6.18
COc1cc(NS(C)(=O)=O)ccc1Nc1c2ccccc2nc2c(C(N)=O)cccc12	6.37
COc1cc(NS(C)(=O)=O)ccc1Nc1c2ccccc2nc2cc(OCCCC(N)=O)ccc12	7.36

SMILES	pKa
CNC(=O)COc1ccc2c(Nc3ccc(NS(C)(=O)=O)cc3OC)c3ccccc3nc2c1	7.35
CNC(=O)CNC(=O)c1cccc2c(Nc3ccc(NS(C)(=O)=O)cc3OC)c3ccccc3nc12	6.2
NC(=O)CCCCCCc1ccc(Nc2c3ccccc3nc3ccccc23)cc1	7.7
CCCCCS(=O)(=O)Nc1ccc(Nc2c3ccccc3nc3cc(NC(C)=O)ccc23)cc1	7.35
COc1cc(NS(C)(=O)=O)ccc1Nc1c2ccccc2nc2cc(OCCO)ccc12	7.36
COc1cc(NS(C)(=O)=O)ccc1Nc1c2ccccc2nc2cc([N+](=O)[O-])ccc12	5.72
COc1cc(NS(C)(=O)=O)ccc1Nc1c2ccccc2nc2c(C(=O)N(C)C)cccc12	6.16
COc1cc(NS(C)(=O)=O)ccc1Nc1c2ccccc2nc2ncccc12	6.09
CCCCS(=O)(=O)Nc1ccc(Nc2c3ccccc3nc3cc(NC(C)=O)ccc23)cc1	7.32
CCS(=O)(=O)Nc1ccc(Nc2c3ccccc3nc3c(C(N)=O)cccc23)c(OC)c1	6.35
CCS(=O)(=O)Nc1ccc(Nc2c3ccccc3nc3cc(NC(C)=O)ccc23)cc1	7.35
CCS(=O)(=O)Nc1ccc(Nc2c3ccccc3nc3cc(NC(C)=O)ccc23)c(OC)c1	7.54
CCS(=O)(=O)Nc1ccc(Nc2c3ccccc3nc3ccccc23)cc1	7.19
COc1ccc2c(Nc3ccc(NS(C)(=O)=O)cc3OC)c3ccccc3nc2c1	7.39
NC(=O)CCCCCc1ccc(Nc2c3ccccc3nc3ccccc23)cc1	7.7
CCCOc1ccc2c(Nc3ccc(NS(C)(=O)=O)cc3OC)c3ccccc3nc2c1	7.36
CCOc1ccc2c(Nc3ccc(NS(C)(=O)=O)cc3OC)c3ccccc3nc2c1	7.37
CCS(=O)(=O)Nc1ccc(Nc2c3ccccc3nc3cc(OC)ccc23)c(OC)c1	7.36

Continued, values first:

pKa	SMILES
6.34	CCCCS(=O)(=O)Nc1ccc(Nc2c3ccccc3nc3c(C(N)=O)cccc23)c(OC)c1
7.35	CCCCS(=O)(=O)Nc1ccc(Nc2c3ccccc3nc3cc(OC)ccc23)c(OC)c1
5.7	CCCCCCS(=O)(=O)Nc1ccc(Nc2c3ccccc3nc3cc([N+](=O)[O-])ccc23)c(OC)c1
7.41	CCCCS(=O)(=O)Nc1ccc(Nc2c3ccccc3nc3ccccc23)c(OC)c1
6.05	CCCCCS(=O)(=O)Nc1ccc(Nc2c3ccccc3nc3ncccc23)c(OC)c1
5.69	CCCS(=O)(=O)Nc1ccc(Nc2c3ccccc3nc3cc([N+](=O)[O-])ccc23)c(OC)c1
6.33	CCCCCCS(=O)(=O)Nc1ccc(Nc2c3ccccc3nc3c(C(N)=O)cccc23)c(OC)c1
6.35	CCCCNC(=O)c1cccc2c(Nc3ccc(NS(=O)(=O)CCC)cc3OC)c3ccccc3nc12
6.03	CCCCCCS(=O)(=O)Nc1ccc(Nc2c3ccccc3nc3ncccc23)c(OC)c1
7.44	CCCCCCCCS(=O)(=O)Nc1ccc(Nc2c3ccccc3nc3ccccc23)c(OC)c1
7.41	CCCS(=O)(=O)Nc1ccc(Nc2c3ccccc3nc3ccccc23)c(OC)c1
7.55	CCCCCCCS(=O)(=O)Nc1ccc(Nc2c3ccccc3nc3cc(NC(C)=O)ccc23)c(OC)c1
7.17	CCCCCCS(=O)(=O)Nc1ccc(Nc2c3ccccc3nc3ccccc23)cc1
5.69	CCCCCCCS(=O)(=O)Nc1ccc(Nc2c3ccccc3nc3cc([N+](=O)[O-])ccc23)c(OC)c1
7.54	CCCCCCS(=O)(=O)Nc1ccc(Nc2c3ccccc3nc3cc(NC(C)=O)ccc23)c(OC)c1
7.54	CCCCCS(=O)(=O)Nc1ccc(Nc2c3ccccc3nc3cc(NC(C)=O)ccc23)c(OC)c1
7.42	CCCCCCS(=O)(=O)Nc1ccc(Nc2c3ccccc3nc3ccccc23)c(OC)c1
5.71	CCCCS(=O)(=O)Nc1ccc(Nc2c3ccccc3nc3cc([N+](=O)[O-])ccc23)c(OC)c1

pKa	SMILES
7.38	CCCS(=O)(=O)Nc1ccc(Nc2c3ccccc3nc3cc(OC)ccc23)c(OC)c1
6.04	CCCCCCCS(=O)(=O)Nc1ccc(Nc2c3ccccc3nc3ncccc23)c(OC)c1
7.56	CCCCS(=O)(=O)Nc1ccc(Nc2c3ccccc3nc3cc(NC(C)=O)ccc23)c(OC)c1
6.36	CCCCCS(=O)(=O)Nc1ccc(Nc2c3ccccc3nc3c(C(N)=O)cccc23)c(OC)c1
5.69	CCCCCS(=O)(=O)Nc1ccc(Nc2c3ccccc3nc3cc([N+](=O)[O-])ccc23)c(OC)c1
6.36	CCCCCS(=O)(=O)Nc1ccc(Nc2c3ccccc3nc3c(C(=O)NCCCC)cccc23)c(OC)c1
7.39	CCCCCS(=O)(=O)Nc1ccc(Nc2c3ccccc3nc3ccccc23)c(OC)c1
7.4	CCS(=O)(=O)Nc1ccc(Nc2c3ccccc3nc3ccccc23)c(OC)c1
6.04	CCCS(=O)(=O)Nc1ccc(Nc2c3ccccc3nc3ncccc23)c(OC)c1
6.33	CCCCCCCS(=O)(=O)Nc1ccc(Nc2c3ccccc3nc3c(C(N)=O)cccc23)c(OC)c1
7.34	COc1cc(NS(C)(=O)=O)ccc1Nc1c2ccccc2nc2ccccc12
7.34	CCCCOc1ccc2c(Nc3ccc(NS(C)(=O)=O)cc3OC)c3ccccc3nc2c1
7.18	CCCCS(=O)(=O)Nc1ccc(Nc2c3ccccc3nc3ccccc23)cc1
7.19	CCCCCS(=O)(=O)Nc1ccc(Nc2c3ccccc3nc3ccccc23)cc1
6.06	CCCCS(=O)(=O)Nc1ccc(Nc2c3ccccc3nc3ncccc23)c(OC)c1
7.42	CCCCCCCS(=O)(=O)Nc1ccc(Nc2c3ccccc3nc3ccccc23)c(OC)c1
7.57	CCCS(=O)(=O)Nc1ccc(Nc2c3ccccc3nc3cc(NC(C)=O)ccc23)c(OC)c1
